Test results: PMC9605374 (Marine Drugs, 2022)
Where two headings read alike, the source gives them in different places.

Columns and labels:
22Rv1 cells [1] = assay: Annexin-V-FITC/PI double staining, flow cytometry; format: cell-based, human; details: 22Rv1, zVAD 100 µM 1 h pretreatment, 48 h
Description: Figure 4 Investigation of the proapoptotic activity of NB. Flow cytometry analysis of 22Rv1 cells after 48 h of treatment. (A) Cell cycle and DNA fragmentation analysis. Treated cells were stained with PI and analyzed using a flow cytometry technique. Sub-G1 population was assumed to be apoptotic cells containing fragmentated DNA. (B) Analysis of phosphatidylserine externalization. Treated cells were double-stained with annexin-V-FITC and PI and analyzed using the flow cytometry technique. Cells of the low left quadrant (annexin-V-FITC^−/PI^−) were considered as alive cells. The Cell Quest Pro v.5.2.1 software (BD Bioscience, San Jose, CA, USA) was used to analyze and quantify the FACS data. Cells treated for 48 h with 10 µM of anisomycin were used as a positive control. Number of replicates n = 3. Statistical significance: * p < 0.05 (ANOVA). […]
Externalization of phosphatidylserine is a distinct marker of apoptotic cell death that can be detected by flow cytometry using annexin-V-FITC and propidium iodide (PI) double staining. […] Cells were harvested utilizing trypsin, stained with annexin-V-FITC and propidium iodide, and analyzed using FACS Calibur (BD Bioscience, San Jose, CA, USA).

22Rv1 = assay: MTT assay, cell viability; format: cell-based; details: Homo sapiens, 22Rv1, 48 h of treatment, mean ± SD
Description: (§1) To examine the anticancer potential and selectivity of NB, we used a panel of six human prostate cancer cell lines, harboring different levels of treatment resistance to representatively reflect the heterogeneity of the disease. […] Additionally, four human noncancer cells lines were utilized in order to determine the selectivity of NB towards prostate cancer cells, i.e., prostate noncancer PNT2 and RWPE-1 cells, human embryonic kidney HEK 293T cells, and human fibroblasts MRC-9. The different cell lines were treated with NB and the cell viability was examined using MTT assay (Figure 1). The mean IC50 of NB and docetaxel (used as a reference substance) in noncancerous cell lines was divided by the mean IC50 in the prostate cancer cell lines to determine the selectivity index (SI).
(§2) The MTT assay was used to monitor the effect of the drugs on cell viability in terms of metabolic activity, as previously reported. First, preincubation of the cells in 96-well plates (6 × 10^3 cells/well in 100 μL/well) was performed overnight in the correspondent culture medium. Next, the medium was exchanged for fresh medium containing the investigated compounds or a vehicle (100 μL/well). Cells were then incubated for 48 h, unless otherwise stated. Then, 10 μL/well of 3-(4,5-dimethylthiazol-2-yl)-2,5-diphenyltetrazolium bromide reagent (MTT, 5 mg/mL) were added. After 2–4 h of additional incubation the media was removed, and the plates were dried. Finally, 50 μL/well of DMSO were added to solve the formed formazan crystals produced by the metabolic active cells and Infinite F200PRO reader (TECAN, Männedorf, Switzerland) was used to measure the cell viability. The results were proceeded with a GraphPad Prism software v.9.1.1 (GraphPad Software, San Diego, CA, USA). Cells treated with the solvent of the drugs alone were used as a control (100% alive cells). The effect of the drugs on cell viability is represented as IC50.

DU145 = assay: MTT assay, cell viability; format: cell-based; details: Homo sapiens, DU-145, DU145, 48 h of treatment, mean ± SD
Description: as §1, §2

HEK293 = assay: MTT assay, cell viability; format: cell-based; details: Homo sapiens, HEK293, 48 h of treatment, mean ± SD
Description: as §1, §2

MRC-9 = assay: MTT assay, cell viability; format: cell-based; details: Homo sapiens, MRC9, MRC-9, 48 h of treatment, mean ± SD
Description: as §1, §2

PC3 = assay: MTT assay, cell viability; format: cell-based; details: Homo sapiens, PC-3, PC3, 48 h of treatment, mean ± SD
Description: as §1, §2

PNT2 = assay: MTT assay, cell viability; format: cell-based; details: Homo sapiens, PNT2, 48 h of treatment, mean ± SD
Description: as §1, §2

RWPE-1 = assay: MTT assay, cell viability; format: cell-based; details: Homo sapiens, RWPE-1, 48 h of treatment, mean ± SD
Description: as §1, §2

VCaP = assay: MTT assay, cell viability; format: cell-based; details: Homo sapiens, 48 h of treatment, mean ± SD
Description: as §1, §2

PC3-DR = assay: MTT assay, cell viability; format: cell-based, human; details: Homo sapiens, PC3-DR, 48 h of treatment, mean ± SD
Description: as §1, §2

prostate cancer cells = assay: MTT assay, mean IC50 in cancer cell panel and selectivity index; format: cell-based, human
Description: as §1, §2

noncancer cells = assay: MTT assay, mean IC50 in noncancer cell panel; format: cell-based; details: Homo sapiens, mean over PNT2, RWPE-1, HEK293, MRC-9, 48 h
Description: as §1
The MTT assay was used to monitor the effect of the drugs on cell viability in terms of metabolic activity, as previously reported. First, preincubation of the cells in 96-well plates (6 × 10^3 cells/well in 100 μL/well) was performed overnight in the correspondent culture medium. Next, the medium was exchanged for fresh medium containing the investigated compounds or a vehicle (100 μL/well). […] Finally, 50 μL/well of DMSO were added to solve the formed formazan crystals produced by the metabolic active cells and Infinite F200PRO reader (TECAN, Männedorf, Switzerland) was used to measure the cell viability. […]

PC3-DR cells [2] = assay: Drug combination study NB with docetaxel, MTT assay, SynergyFinder 2.0; format: cell-based; details: Homo sapiens, PC3-DR, NB 0, 24 h, MTT
Description: Thus, drug-resistant PC3-DR cells were treated with docetaxel in combination with NB (Figure 9). Potential synergism between NB and docetaxel was measured by the Chou–Talalay method as described before.
Figure 9 Combinational treatment on PC3-DR cells with NB and docetaxel. […] MTT assay was used to examine cellular viability. Number of replicates n = 3. (A) The heatmap represents cytotoxicity (viability inhibition) of the individual drugs or their combinations. (B,C) To calculate and visualize in 2D (B) or 3D (C) the effect of the drug combination (synergism/additive effect/antagonism), the SynergyFinder v. 2.0 software (Network Pharmacology for Precision Medicine in the Research Program of System Oncology, Faculty of Medicine at University of Helsinki, Helsinki, Finland) and a ZIP reference model were used. Green regions indicate antagonism, white regions refer to additive effect, and red regions indicate synergism.
(§3) The experiments were carried out as previously reported. […] 22Rv1 cells (6 × 10^3 cells/well in 96-well plates) were simultaneously treated with NB and docetaxel; or pretreated with MAPK inhibitors for 1 h following treatment with NB in the total media volume of 100 µL/well. Following 24 h of incubation, the viability of the cells treated with individual drugs as well as their combinations was determined using MTT assay. […] Red areas (positive δ-values) and green areas (negative δ-values) indicate synergism and antagonism, respectively.

PC3-DR cells [3] = details: PC3-DR vs PC3; cited from earlier work
22Rv1 cells [4] = assay: Drug combination study NB with MAPK inhibitors, MTT assay, SynergyFinder 2.0; format: cell-based; details: Homo sapiens, MTT
Description: Whether activation of MAPKs contribute to cell death or survival depends not only on the cellular context, but also on the nature of the activating stimuli. Thus, to reveal the function of JNK1/2 and p38 in the anticancer effect of NB, we co-treated 22Rv1 cells with NB and specific inhibitors of the above-mentioned MAPKs. […] As MEK1/2 kinase directly and exclusively activates ERK1/2, PD98039 inhibitor is often used as an ERK1/2 inhibitor [38]. Thus, an inactivation of MEK1/2 leads solely to an inhibition of ERK1/2 [38]. Since the inhibitors themselves exert cytotoxic effects in cancer cells, we used a Chou–Talalay method to distinguish between synergism, additive effects, or antagonistic effects of the particular MAPK inhibitor on the compound bioactivity. For this, using an MTT assay, we determined a cytotoxic effect on various concentrations of NB, MAPK inhibitors, and their combinations in 22Rv1 cells. The viability data were further analyzed using the SynergyFinder v. 2.0 software (Network Pharmacology for Precision Medicine in the Research Program of System Oncology, Faculty of Medicine at University of Helsinki, Helsinki, Finland) and a Zero interaction potency (ZIP) reference model (Figure 7).
as §3

HeLa cells = test system: HeLa cells; parameters: method as in PMID 28051860; details: cited from earlier work

In the case of `COc1ccc(C[C@H]2NC[C@H](O)[C@H]2OC(C)=O)cc1` [Anisomycin, anisomycin, reference compound], the “effect of pretreatment with pan-caspase inhibitor zVAD on drug-induced cell death” value (22Rv1 cells [1]) is reported as “strongly inhibited”.

In the case of `CC(=O)O[C@@]12CO[C@@H]1C[C@H](O)[C@@]1(C)C(=O)[C@H](O)C3=C(C)[C@@H](OC(=O)[C@H](O)[C@@H](NC(=O)OC(C)(C)C)c4ccccc4)C[C@@](O)([C@@H](OC(=O)c4ccccc4)[C@H]21)C3(C)C` [Docetaxel, docetaxel, reference compound], the IC50 (22Rv1) is reported as 0.6 ± 0.12 nM, the IC50 (DU145) is reported as 2.2 ± 0.6 nM and the IC50 (HEK293) is reported as 11.5 ± 3.22 nM. It also gave an IC50 (MRC-9) greater than 500 nM, an IC50 (PC3) of 7.49 ± 7.09 nM and an IC50 (PNT2) greater than 500 nM. For the same compound, the IC50 (RWPE-1) was 0.42 ± 0.23 nM, the IC50 (VCaP) was 0.23 ± 0.22 nM and the IC50 (PC3-DR) was 325 ± 21.7 nM. For the same compound, the IC50 (prostate cancer cells; Homo sapiens, mean over PC3, PC3-DR, DU145, 22Rv1, VCaP, LNCaP, 48 h, MTT) was 56.8 nM, the “Selectivity Index (SI)” value (prostate cancer cells; [mean IC50 in noncancer cells]/[mean IC50 in cancer cells]) was 4.5 and the IC50 (noncancer cells) was 253 nM. For the same compound, the inhibition at 0.00625 µM (PC3-DR cells [2]; docetaxel 6.25 nM) was 8.64%, the inhibition at 0.025 µM (PC3-DR cells [2]; docetaxel 25 nM) was 18.7% and the inhibition at 0.1 µM (PC3-DR cells [2]; docetaxel 100 nM) was 31%. For the same compound, the inhibition at 0.4 µM (PC3-DR cells [2]; docetaxel 400 nM) was 58.8%, the “fold less sensitivity of PC3-DR compared to parental cell line” value (PC3-DR cells [3]) was ~ 50 fold and the “fold more resistant compared to the parental cell line PC3” value (PC3-DR cells [3]) was ~ 50 fold.

Compound `C[S+]([O-])c1ccc(-c2nc(-c3ccncc3)c(-c3ccc(F)cc3)[nH]2)cc1` (stereo not drawn) [SB203580, reference compound] has an inhibition at 12.5 µM (22Rv1 cells [4]; 22Rv1, 22Rv1, inhibitor alone 12.5 μM (NB 0)) of 27.6%, an inhibition at 25 µM (22Rv1 cells [4]; 22Rv1, 22Rv1, inhibitor alone 25 μM (NB 0)) of 39.7% and an inhibition at 50 µM (22Rv1 cells [4]; 22Rv1, 22Rv1, inhibitor alone 50 μM (NB 0)) of 53.3%. The inhibition at 100 µM (22Rv1 cells [4]; 22Rv1, 22Rv1, inhibitor alone 100 μM (NB 0)) was 63.9%.

In the case of `Oc1c2ccccc2c2c3c(cccc13)N=N2` [SP600125, reference compound], the inhibition at 12.5 µM (22Rv1 cells [4]; 22Rv1, inhibitor alone 12.5 μM (NB 0), read-out: Inhibition (%)) is reported as -5.92%, the inhibition at 25 µM (22Rv1 cells [4]; 22Rv1, inhibitor alone 25 μM (NB 0), read-out: Inhibition (%)) is reported as 0.99% and the inhibition at 50 µM (22Rv1 cells [4]; 22Rv1, inhibitor alone 50 μM (NB 0), read-out: Inhibition (%)) is reported as 19.4%. It also gave an inhibition at 100 µM (22Rv1 cells [4]; 22Rv1, inhibitor alone 100 μM (NB 0), read-out: Inhibition (%)) of 27.5%.

In the case of `COc1ccc2cc(NC(=O)C3=NO[C@H]4[C@H](O)C=C[C@@H](O)[C@@]4(O)C3)c(=O)oc2c1OC` [trichodermamide A], the “cytotoxic activity in HeLa cells” value (HeLa cells) is listed as “inactive”.

For `COc1ccc2cc(NC(=O)C3=NO[C@H]4[C@H](O)C=C[C@@H](Cl)[C@@]4(O)C3)c(=O)oc2c1OC` [trichodermamide B], the “cytotoxic activity in HeLa cells” value (HeLa cells) is given as “high cytotoxic activity”.

For `COc1ccc2cc(N(C)C(=O)C3=NO[C@H]4[C@H](O)C=C[C@@H](O)[C@@]4(O)C3)c(=O)oc2c1OC` [trichodermamide C], the “cytotoxic activity in HeLa cells” value (HeLa cells) is listed as “inactive”.
